Data taken from ChEMBL document CHEMBL1201862, “PubChem BioAssay data set” (2004).
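Five concentrations, 48 hours, 96-well plates. GI50 marks 50% less growth.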 The source made the active and inactive calls. Cut-off read from the data, not from the text of the source: active = GI50 up to about 1.1 µM and inactive = higher.

Experiments:
Assay in all cases: inhibition of tumour cell growth, NCI panel, 48 h
DU-145 = test system: DU-145
EKVX = test system: EKVX
HCC 2998 = test system: HCC 2998
HCT-116 = test system: HCT-116
HT-29 = test system: HT-29
IGROV-1 = test system: IGROV-1
K562 = test system: K562
NCI-H23 = test system: NCI-H23
NCI-H460 = test system: NCI-H460
NCI-H522 = test system: NCI-H522
OVCAR-3 = test system: OVCAR-3
SF-268 = test system: SF-268
SF-295 = test system: SF-295
SK-MEL-28 = test system: SK-MEL-28
SK-MEL-2 = test system: SK-MEL-2
SR = test system: SR
T47D = test system: T47D
UACC-257 = test system: UACC-257
UO-31 = test system: UO-31

Row | SMILES | GI50 (DU-145) | GI50 (EKVX) | GI50 (HCC 2998) | GI50 (HCT-116) | GI50 (HT-29) | GI50 (IGROV-1) | GI50 (K562) | GI50 (NCI-H23) | GI50 (NCI-H460) | GI50 (NCI-H522) | GI50 (OVCAR-3) | GI50 (SF-268) | GI50 (SF-295) | GI50 (SK-MEL-28) | GI50 (SK-MEL-2) | GI50 (SR) | GI50 (T47D) | GI50 (UACC-257) | GI50 (UO-31)
1 | CCCCCC(O)C(O)CCC[C@H](O)[C@H]1CC[C@H]([C@H]2CC[C@H]([C@H](O)CCCCCCCCCCCCC3=C[C@H](C)OC3=O)O2)O1 (some centres not stated) | 9.18 µM (inactive) | 2.62 µM (inactive) | 11 µM (inactive) | 1.36 µM (inactive) | 2.63 µM (inactive) | 3.24 µM (inactive) | 1.38 µM (inactive) | 1.37 µM (inactive) | 2.43 µM (inactive) | 4.88 µM (inactive) | 2.47 µM (inactive) | 1.83 µM (inactive) | 1.97 µM (inactive) | 2.56 µM (inactive) | 1.76 µM (inactive) | 4.15 µM (inactive) | 7.19 µM (inactive) | 0.597 µM (active) | 1.85 µM (inactive)
2 | Cn1cc(C[C@@H](N)C(=O)O)c2ccccc21 [INDOXIMOD] | > 100 µM (inactive) | > 100 µM (inactive) | > 100 µM (inactive) | > 100 µM (inactive) | > 100 µM (inactive) | > 100 µM (inactive) | > 100 µM (inactive) | > 100 µM (inactive) | > 100 µM (inactive) | > 100 µM (inactive) | > 100 µM (inactive) | > 100 µM (inactive) | > 100 µM (inactive) | > 100 µM (inactive) | > 100 µM (inactive) | > 100 µM (inactive) | > 100 µM (inactive) | > 100 µM (inactive) | > 100 µM (inactive)
3 | CC(C)c1ccc(/C=C2\N=C(c3ccc([N+](=O)[O-])cc3)OC2=O)cc1 | > 100 µM (inactive) | > 100 µM (inactive) | > 100 µM (inactive) | > 100 µM (inactive) | > 100 µM (inactive) | > 100 µM (inactive) | > 100 µM (inactive) | > 100 µM (inactive) | > 100 µM (inactive) | > 100 µM (inactive) | > 100 µM (inactive) | > 100 µM (inactive) | > 100 µM (inactive) | > 100 µM (inactive) | > 100 µM (inactive) | > 100 µM (inactive) | > 100 µM (inactive) | > 100 µM (inactive) | –
4 | O=c1[nH]nc(-c2ccccc2)c2[nH]c3c(c12)Cc1ccccc1-3 | 10.4 µM (inactive) | 6.79 µM (inactive) | 6.82 µM (inactive) | 1.82 µM (inactive) | 1.4 µM (inactive) | 0.723 µM (active) | 0.839 µM (active) | > 26.5 µM (inactive) | 2.11 µM (inactive) | 0.295 µM (active) | 0.914 µM (active) | 2.87 µM (inactive) | 1.97 µM (inactive) | 6.01 µM (inactive) | 1.43 µM (inactive) | 0.069 µM (active) | > 100 µM (inactive) | – | 5.41 µM (inactive)
5 | O=C(O)/C=C/C(=O)O [FUMARIC ACID] | > 100 µM (inactive) | > 100 µM (inactive) | > 100 µM (inactive) | > 100 µM (inactive) | > 100 µM (inactive) | > 100 µM (inactive) | > 100 µM (inactive) | > 100 µM (inactive) | > 100 µM (inactive) | > 100 µM (inactive) | > 100 µM (inactive) | > 100 µM (inactive) | > 100 µM (inactive) | > 100 µM (inactive) | > 100 µM (inactive) | > 100 µM (inactive) | > 100 µM (inactive) | > 100 µM (inactive) | > 100 µM (inactive)
6 | CSc1c(C#N)c(O)nc(N)c1C(=O)Nc1ccc(C)cc1 | > 100 µM (inactive) | > 100 µM (inactive) | > 100 µM (inactive) | > 100 µM (inactive) | > 100 µM (inactive) | – | > 100 µM (inactive) | 90.6 µM (inactive) | > 100 µM (inactive) | 71.9 µM (inactive) | > 100 µM (inactive) | > 100 µM (inactive) | – | > 100 µM (inactive) | > 100 µM (inactive) | > 100 µM (inactive) | > 100 µM (inactive) | > 100 µM (inactive) | 31.4 µM (inactive)
7 | CC(C)[C@H](NC(=O)OCc1ccccc1)C(=O)N[C@H](/C=C/C(=O)OC(C)(C)C)CO | > 100 µM (inactive) | > 100 µM (inactive) | > 100 µM (inactive) | 71.9 µM (inactive) | > 100 µM (inactive) | > 100 µM (inactive) | – | > 100 µM (inactive) | > 100 µM (inactive) | > 100 µM (inactive) | > 100 µM (inactive) | > 100 µM (inactive) | > 100 µM (inactive) | > 100 µM (inactive) | > 100 µM (inactive) | > 100 µM (inactive) | 36.7 µM (inactive) | > 100 µM (inactive) | –
8 | CC(=O)OCC1OC(n2c(C)c(C(C)=O)c(-c3ccc(Cl)cc3)c(C#N)c2=S)C(OC(C)=O)C(OC(C)=O)C1OC(C)=O (configuration not stated) | > 100 µM (inactive) | – | > 100 µM (inactive) | > 100 µM (inactive) | > 100 µM (inactive) | > 100 µM (inactive) | > 100 µM (inactive) | > 100 µM (inactive) | > 100 µM (inactive) | > 100 µM (inactive) | > 100 µM (inactive) | > 100 µM (inactive) | > 100 µM (inactive) | > 100 µM (inactive) | > 100 µM (inactive) | > 100 µM (inactive) | > 100 µM (inactive) | > 100 µM (inactive) | > 100 µM (inactive)
9 | CCC(C)NC(=S)N/N=C(\C)c1nc2cccnc2[nH]1 (configuration not stated) | 16.9 µM (inactive) | 6.73 µM (inactive) | 13.4 µM (inactive) | 6.05 µM (inactive) | 4.49 µM (inactive) | 12.2 µM (inactive) | 2.24 µM (inactive) | 41.6 µM (inactive) | 10 µM (inactive) | 7.87 µM (inactive) | 3.25 µM (inactive) | 8.36 µM (inactive) | 5.53 µM (inactive) | 33.9 µM (inactive) | 5.92 µM (inactive) | 3.85 µM (inactive) | 2.1 µM (inactive) | 5.79 µM (inactive) | 2.32 µM (inactive)
10 | CC(=O)NC1C(OCc2ccccc2)OC(CO)C(O)C1OCC(=O)N[C@@H](C)C(=O)N[C@H](CCC(=O)NCCCNc1c2ccccc2nc2cccc([N+](=O)[O-])c12)C(N)=O (some centres not stated) | 0.0308 µM (active) | 0.0462 µM (active) | 0.0142 µM (active) | < 0.0127 µM (active) | < 0.0149 µM (active) | 0.0506 µM (active) | 0.0229 µM (active) | 0.0248 µM (active) | 0.0101 µM (active) | < 0.0111 µM (active) | 0.0678 µM (active) | – | 0.15 µM (active) | 0.205 µM (active) | 0.0404 µM (active) | 0.0249 µM (active) | 0.047 µM (active) | 0.0448 µM (active) | 0.123 µM (active)
11 | O=C(Cc1nc2ccccc2[nH]c1=O)c1c[nH]c2ccccc12 | 15.2 µM (inactive) | 29.6 µM (inactive) | 13.3 µM (inactive) | 13.8 µM (inactive) | 6.08 µM (inactive) | 20.3 µM (inactive) | 6.07 µM (inactive) | 20.4 µM (inactive) | 6.58 µM (inactive) | 14.8 µM (inactive) | 14 µM (inactive) | > 100 µM (inactive) | 9.04 µM (inactive) | – | 10.1 µM (inactive) | 4.42 µM (inactive) | 12.2 µM (inactive) | 23.8 µM (inactive) | 11.9 µM (inactive)
12 | Cc1ccc2c(=O)c3c(O)c4c(cc3n(C)c2c1)OC(C)(C)C=C4 | > 10 µM (inactive) | > 10 µM (inactive) | > 10 µM (inactive) | > 10 µM (inactive) | > 10 µM (inactive) | > 10 µM (inactive) | > 10 µM (inactive) | > 10 µM (inactive) | > 10 µM (inactive) | > 10 µM (inactive) | > 10 µM (inactive) | > 10 µM (inactive) | > 10 µM (inactive) | > 10 µM (inactive) | > 10 µM (inactive) | > 10 µM (inactive) | > 10 µM (inactive) | > 10 µM (inactive) | –
13 | C=CCOc1ccc(C(=N/NC(=O)c2ccccc2)/N=N/c2ccccc2)cc1OC | > 100 µM (inactive) | > 100 µM (inactive) | 37.5 µM (inactive) | 67.9 µM (inactive) | 46.5 µM (inactive) | > 100 µM (inactive) | – | 73.8 µM (inactive) | 40.6 µM (inactive) | 93.5 µM (inactive) | 86.9 µM (inactive) | > 100 µM (inactive) | > 100 µM (inactive) | > 100 µM (inactive) | > 100 µM (inactive) | 77.1 µM (inactive) | 24 µM (inactive) | > 100 µM (inactive) | 92.9 µM (inactive)
14 | COc1ccc([C@]23CCC4(OCC(C)(C)CO4)[C@H]4CON(O[C@H](O[C@@H]5CCCCC5C(C)(C)c5ccccc5)C2)[C@@H]43)cc1OC (some centres not stated) | 59.3 µM (inactive) | 34 µM (inactive) | > 100 µM (inactive) | 33.3 µM (inactive) | 44 µM (inactive) | 32.7 µM (inactive) | 21.5 µM (inactive) | 47.6 µM (inactive) | 79.4 µM (inactive) | 27 µM (inactive) | 34 µM (inactive) | – | 39 µM (inactive) | 42.6 µM (inactive) | 47.1 µM (inactive) | 20 µM (inactive) | 20.2 µM (inactive) | 36.6 µM (inactive) | 35.8 µM (inactive)
15 | CCc1cccc(CC)c1Nc1nc2c(s1)C(=O)c1ccccc1C2=O | 21.6 µM (inactive) | 16.3 µM (inactive) | 18.7 µM (inactive) | 16.7 µM (inactive) | – | 12.2 µM (inactive) | 28 µM (inactive) | 15.3 µM (inactive) | 16.9 µM (inactive) | 23.4 µM (inactive) | 13.7 µM (inactive) | 16.9 µM (inactive) | 13.7 µM (inactive) | 19.1 µM (inactive) | 18.6 µM (inactive) | 23.3 µM (inactive) | 33.6 µM (inactive) | 19.5 µM (inactive) | 15.4 µM (inactive)
